Experimental data: ChEMBL document CHEMBL1201862, “PubChem BioAssay data set” (2004)
Activity calls are given as the source filed them.

Experiments:
[1] = Counterscreen for IDE inhibitors: Luminescence-based cell-based high throughput dose response assay to identify compounds that are cytotoxic to HEK cells. [Related pubchem assays: 434962 (Primary screen (IDE inhibitors in singlicate)), 449730 (Counterscreen (Cytotoxicity in triplicate)), 435028 (Confirmation (IDE inhibitors in triplicate)) …; format: functional; conditions: HEK293
Insulin-degrading enzyme = target: T1, Insulin-degrading enzyme (Homo sapiens, UniProt P14735); test: Dose Response: Fluorescence polarization-based cell-based high throughput dose response assay for inhibitors of insulin-degrading enzyme (IDE). [Related pubchem assays: 434962 (Primary screen (IDE inhibitors in singlicate)), 449730 (Counterscreen (Cytotoxicity in triplicate)), 435028 (Confirmation (IDE inhibitors in triplicate)), 434984 (Summary …; format: functional
T1 sequence (P14735 whole entry): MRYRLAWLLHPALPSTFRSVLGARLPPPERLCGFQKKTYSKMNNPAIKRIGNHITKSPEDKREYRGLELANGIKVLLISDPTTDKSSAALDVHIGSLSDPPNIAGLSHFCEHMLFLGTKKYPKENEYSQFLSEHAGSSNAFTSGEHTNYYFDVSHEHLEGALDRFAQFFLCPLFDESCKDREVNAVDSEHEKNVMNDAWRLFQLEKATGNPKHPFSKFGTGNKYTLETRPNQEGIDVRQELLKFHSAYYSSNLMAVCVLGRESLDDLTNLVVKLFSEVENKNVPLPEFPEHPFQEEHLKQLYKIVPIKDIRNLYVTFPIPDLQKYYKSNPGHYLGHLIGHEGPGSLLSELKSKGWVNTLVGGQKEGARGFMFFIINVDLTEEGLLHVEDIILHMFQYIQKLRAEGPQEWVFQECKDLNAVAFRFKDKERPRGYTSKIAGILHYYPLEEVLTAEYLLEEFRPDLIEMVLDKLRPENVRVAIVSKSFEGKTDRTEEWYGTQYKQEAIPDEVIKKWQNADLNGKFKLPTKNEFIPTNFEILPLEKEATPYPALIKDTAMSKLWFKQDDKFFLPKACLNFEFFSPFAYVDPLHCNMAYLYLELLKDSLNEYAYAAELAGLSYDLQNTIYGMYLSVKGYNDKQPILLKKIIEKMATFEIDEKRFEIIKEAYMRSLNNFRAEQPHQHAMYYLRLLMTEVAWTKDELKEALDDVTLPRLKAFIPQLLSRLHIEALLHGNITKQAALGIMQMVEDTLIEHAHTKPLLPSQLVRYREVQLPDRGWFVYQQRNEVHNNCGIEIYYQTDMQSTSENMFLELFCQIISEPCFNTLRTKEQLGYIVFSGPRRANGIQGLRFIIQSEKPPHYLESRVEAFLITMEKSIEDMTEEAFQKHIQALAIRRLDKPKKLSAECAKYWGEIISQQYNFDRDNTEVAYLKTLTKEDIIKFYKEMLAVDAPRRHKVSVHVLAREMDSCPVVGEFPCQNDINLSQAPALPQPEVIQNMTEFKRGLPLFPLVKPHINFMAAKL

[2] = cytotoxicity in HEK-293T cells, dose response, cytotoxicity control for BCR NF-kB inhibitor project, luminescence, B-cell screen hits (AID 489021); format: functional, cell-based;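 further: HEK-293T cells carrying an NF-kB luciferase reporter; cells exposed to compound for about 14 hours before viability readout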
Protein Wnt-3a = Protein Wnt-3a (Mus musculus, UniProt P27467); test: Wnt3a-driven reporter signaling inhibition, dose response, selectivity assay for Gli-SUFU antagonist project, Wnt-LIGHT cells, luminescence (AID 651570); format: functional; conditions: read-out: IC50_Mean;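 further: Wnt-LIGHT reporter cells stimulated with conditioned medium from Wnt3a-producing cells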
[3] = inhibitors of firefly luciferase expression or activity, dose response, H4 neuroglioma cells, luminescence (AID 1990); format: functional, cell-based
[4] = luciferase reporter signal reduction – luminescence, H4-C neuroglioblastoma cells, dose response (AID 2458); format: functional, cell-based;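 further: H4 neuroglioblastoma cells stably carrying a luciferase reporter gene fusion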
cells = format: functional, cell-based
[5] = inhibitors of SNCA 5'UTR-driven reporter translation, confirmation, H4 neuroglioma cells, luminescence (AID 1988); format: functional, cell-based
[6] = inhibitors of SNCA 5'UTR-driven translation, confirmation, luminescence, H4 neuroglioblastoma cells, dose confirmation (AID 2454); format: functional, cell-based;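 further: H4 neuroglioblastoma cells carrying an alpha-synuclein 5'UTR luciferase reporter; potency for inhibition of the luciferase signal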
[7] = target: G2/mitotic-specific cyclin-B1 (Homo sapiens, UniProt P14635); test: Counterscreen assay for inhibitors of Wee1 degradation: dose response cell-based assay to identify inhibitors of cyclin B degradation. [Related pubchem assays: 1410, 1321 ]; format: functional
Wee1-like protein kinase = Wee1-like protein kinase (Homo sapiens, UniProt P30291); test: Dose Response Cell-based Assay for Inhibitors of Wee1 Degradation. [Related pubchem assays: 1410, 1321 ]; format: functional
Aspartyl aminopeptidase = target: T2, Aspartyl aminopeptidase (Plasmodium falciparum 3D7, UniProt Q8I2J3)
T2 sequence (Q8I2J3 whole entry): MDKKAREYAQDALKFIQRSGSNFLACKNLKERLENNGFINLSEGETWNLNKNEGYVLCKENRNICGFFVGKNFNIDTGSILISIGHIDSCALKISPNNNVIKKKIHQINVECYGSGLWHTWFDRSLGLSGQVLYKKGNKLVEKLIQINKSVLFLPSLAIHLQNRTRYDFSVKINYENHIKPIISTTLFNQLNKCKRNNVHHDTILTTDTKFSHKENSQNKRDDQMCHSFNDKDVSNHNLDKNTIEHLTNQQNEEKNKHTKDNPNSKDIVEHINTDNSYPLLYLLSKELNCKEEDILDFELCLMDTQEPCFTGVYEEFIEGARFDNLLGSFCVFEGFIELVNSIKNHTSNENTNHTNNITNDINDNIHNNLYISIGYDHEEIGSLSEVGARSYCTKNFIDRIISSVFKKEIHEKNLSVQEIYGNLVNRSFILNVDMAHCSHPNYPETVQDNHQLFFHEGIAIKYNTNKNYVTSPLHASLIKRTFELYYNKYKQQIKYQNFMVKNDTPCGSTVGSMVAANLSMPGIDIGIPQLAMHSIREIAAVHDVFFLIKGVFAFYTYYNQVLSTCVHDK

Procathepsin L = Procathepsin L (Homo sapiens, UniProt P07711)
Large T antigen = Large T antigen (Simian virus 40, UniProt P03070); format: functional, Betapolyomavirus macacae;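 further: Confirmatory-stage PubChem screen for compounds that inhibit SV40 T antigen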
[8] = target: Intestinal-type alkaline phosphatase (Homo sapiens, UniProt P09923); test: activation of human intestinal alkaline phosphatase – biochemical, dose response (AID 488873); format: functional
[9] = target: FAD-linked sulfhydryl oxidase ALR (Homo sapiens, UniProt P55789); test: inhibitors of human ALR sulfhydryl oxidase, dose response, biochemical, H2O2 detection, luminescence, cherry-pick (AID 493248)
[10] = target: Intestinal-type alkaline phosphatase (Mus musculus, UniProt P24822); test: mouse intestinal alkaline phosphatase activators, dose response, biochemical, luminescence, uHTS hits (AID 488783); format: functional
[11] = target: T3, Alkaline phosphatase, tissue-nonspecific isozyme (Homo sapiens, UniProt P05186); test: TNAP enzyme activators, dose response, selectivity assay for mouse IAP activator project, biochemical, TNAP isozyme, mouse IAP uHTS hits (AID 488880); format: functional
T3 sequence (P05186 whole entry): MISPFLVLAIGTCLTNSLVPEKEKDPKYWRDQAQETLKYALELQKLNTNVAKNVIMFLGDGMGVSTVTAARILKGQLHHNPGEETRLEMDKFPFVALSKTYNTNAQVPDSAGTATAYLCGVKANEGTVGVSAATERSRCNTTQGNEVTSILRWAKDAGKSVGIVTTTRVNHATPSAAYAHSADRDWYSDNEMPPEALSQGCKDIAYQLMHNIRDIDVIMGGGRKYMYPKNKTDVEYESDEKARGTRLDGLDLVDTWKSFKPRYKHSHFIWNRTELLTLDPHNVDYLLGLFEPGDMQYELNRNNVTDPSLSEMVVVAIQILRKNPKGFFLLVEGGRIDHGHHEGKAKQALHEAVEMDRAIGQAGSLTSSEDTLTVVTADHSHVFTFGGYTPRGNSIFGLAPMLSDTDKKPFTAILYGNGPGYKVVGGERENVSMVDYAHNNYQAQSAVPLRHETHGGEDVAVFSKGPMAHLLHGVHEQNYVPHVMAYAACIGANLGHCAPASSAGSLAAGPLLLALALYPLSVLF

Albumin = Albumin (Bos taurus, UniProt P02769); test: Counterscreen for inhibitors of T-cell receptor (TCR)-CD3 interaction: Fluorescence-based biochemical high throughput dose response assay to identify inhibitors of T-cell receptor (TCR)-CD3 interaction using a TAMRA-labeled BSA probe.; format: functional
[12] = THP-1 cell cytotoxicity, dose response, cytotoxicity control for Vif-APOBEC3G degradation inhibitor project, THP-1 cells (AID 1117359); format: functional; conditions: Human immunodeficiency virus 1, THP-1
Cytochrome P450 2C19 = Cytochrome P450 2C19 (Homo sapiens, UniProt P33261); test: qHTS Assay for Inhibitors and Substrates of Cytochrome P450 2C19. [Related pubchem assays: 410 ]; format: ADME; conditions: read-out: Potency
Cytochrome P450 2D6 = Cytochrome P450 2D6 (Homo sapiens, UniProt P10635); test: qHTS Assay for Inhibitors and Substrates of Cytochrome P450 2D6. [Related pubchem assays: 410 ]; format: ADME; conditions: read-out: Potency
[13] = target: Transitional endoplasmic reticulum ATPase (Homo sapiens, UniProt P55072, C522A); test: C522A mutant p97 ATPase inhibitors, dose response, counter-screen for p97 inhibitor project, biochemical, luminescence (AID 1544)
[14] = target: Transitional endoplasmic reticulum ATPase (Homo sapiens, UniProt P55072); test: p97 ATPase inhibitors, dose response, biochemical (AID 1534)
[15] = target: T4, Microphthalmia-associated transcription factor (Homo sapiens, UniProt O75030); test: TRPM1 promoter luciferase signal decrease, dose response, MITF inhibitor project, cell-based, SK-MEL-5, cherry-picked, set 3 (AID 493073); format: functional
T4 sequence (O75030 whole entry): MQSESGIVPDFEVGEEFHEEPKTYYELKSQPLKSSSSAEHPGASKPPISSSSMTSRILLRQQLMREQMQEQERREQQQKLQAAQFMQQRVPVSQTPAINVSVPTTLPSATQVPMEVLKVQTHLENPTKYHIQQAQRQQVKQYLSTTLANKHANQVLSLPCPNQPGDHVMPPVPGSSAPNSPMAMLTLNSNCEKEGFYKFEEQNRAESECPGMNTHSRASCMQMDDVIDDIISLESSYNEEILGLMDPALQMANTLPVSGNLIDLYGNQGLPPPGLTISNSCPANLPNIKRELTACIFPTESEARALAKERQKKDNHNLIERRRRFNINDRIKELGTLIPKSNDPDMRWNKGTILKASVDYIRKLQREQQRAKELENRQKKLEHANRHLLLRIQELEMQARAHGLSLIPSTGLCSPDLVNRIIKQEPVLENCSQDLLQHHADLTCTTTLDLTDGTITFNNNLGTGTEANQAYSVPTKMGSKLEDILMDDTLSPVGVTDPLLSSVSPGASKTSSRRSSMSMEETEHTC

[16] = A Cell Based Secondary Assay To Explore Cytotoxicity of Compounds that Sensitize Mycobacterium Tuberculosis to Beta-Lactam Antibiotics.; format: functional
[17] = tested on: Streptococcus sp. 'group A'; test: growth inhibition of control SK(-) GAS strain, dose response, counter-screen for streptokinase expression inhibitor project, luminescence, kanamycin, BacTiterGlo, confirmation (AID 1900); format: functional, organism-based
Streptokinase A = target: T5, Streptokinase A (Streptococcus pyogenes serotype M1, UniProt P10520); test: S. pyogenes streptokinase expression inhibitors, potency, dose response, plasminogen activation absorbance, OD405 (AID 1914); format: functional, Streptococcus pyogenes M1 GAS;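 further: secreted streptokinase activity via plasminogen activation per viability signal from cell pellet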
T5 sequence (P10520 whole entry): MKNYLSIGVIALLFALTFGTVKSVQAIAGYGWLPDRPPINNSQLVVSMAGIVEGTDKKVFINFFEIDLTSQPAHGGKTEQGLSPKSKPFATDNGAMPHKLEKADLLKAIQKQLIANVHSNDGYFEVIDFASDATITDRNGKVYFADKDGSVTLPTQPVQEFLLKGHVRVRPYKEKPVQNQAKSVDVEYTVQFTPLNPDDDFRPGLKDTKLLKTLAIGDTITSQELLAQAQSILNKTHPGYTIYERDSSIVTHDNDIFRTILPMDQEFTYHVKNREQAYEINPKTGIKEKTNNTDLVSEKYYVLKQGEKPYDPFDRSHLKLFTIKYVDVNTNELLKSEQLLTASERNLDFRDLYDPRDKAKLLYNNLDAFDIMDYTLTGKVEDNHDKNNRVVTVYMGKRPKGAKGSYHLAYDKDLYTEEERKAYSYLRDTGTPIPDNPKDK

NS3 = NS3 (Hepatitis C virus, UniProt A3EZJ3); test: PubChem AID 2173; parameters: species or system Hepacivirus hominis
Streptococcus = test: Group A Streptococcus viability loss, dose response, counter-screen for streptokinase expression inhibitor project, luminescence, BacTiterGlo (AID 1915); format: functional, organism-based;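 further: potency for reduction of bacterial viability or growth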
[18] = Luminescence Cell-Based Dose Retest to Confirm Inhibitors of Cancer Stem Cells. [Related pubchem assays (depositor defined):AID2717, AID2721]; format: functional; conditions: Homo sapiens

Intestinal-type alkaline phosphatase (Homo sapiens, UniProt P09923), sequence (P09923 whole entry): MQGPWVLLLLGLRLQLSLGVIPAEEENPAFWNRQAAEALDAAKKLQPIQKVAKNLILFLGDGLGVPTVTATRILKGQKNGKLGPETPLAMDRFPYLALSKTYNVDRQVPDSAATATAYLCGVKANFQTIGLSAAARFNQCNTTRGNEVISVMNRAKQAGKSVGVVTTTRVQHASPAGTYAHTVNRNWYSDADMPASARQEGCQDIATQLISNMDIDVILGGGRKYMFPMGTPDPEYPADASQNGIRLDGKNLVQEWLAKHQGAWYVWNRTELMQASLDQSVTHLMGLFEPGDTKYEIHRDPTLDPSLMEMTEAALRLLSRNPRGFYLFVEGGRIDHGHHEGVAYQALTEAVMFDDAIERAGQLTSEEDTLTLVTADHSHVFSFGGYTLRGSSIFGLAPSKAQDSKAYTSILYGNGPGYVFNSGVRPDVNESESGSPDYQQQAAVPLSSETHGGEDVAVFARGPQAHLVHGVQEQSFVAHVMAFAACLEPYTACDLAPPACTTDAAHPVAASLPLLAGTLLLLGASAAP
Albumin, sequence (P02769 whole entry): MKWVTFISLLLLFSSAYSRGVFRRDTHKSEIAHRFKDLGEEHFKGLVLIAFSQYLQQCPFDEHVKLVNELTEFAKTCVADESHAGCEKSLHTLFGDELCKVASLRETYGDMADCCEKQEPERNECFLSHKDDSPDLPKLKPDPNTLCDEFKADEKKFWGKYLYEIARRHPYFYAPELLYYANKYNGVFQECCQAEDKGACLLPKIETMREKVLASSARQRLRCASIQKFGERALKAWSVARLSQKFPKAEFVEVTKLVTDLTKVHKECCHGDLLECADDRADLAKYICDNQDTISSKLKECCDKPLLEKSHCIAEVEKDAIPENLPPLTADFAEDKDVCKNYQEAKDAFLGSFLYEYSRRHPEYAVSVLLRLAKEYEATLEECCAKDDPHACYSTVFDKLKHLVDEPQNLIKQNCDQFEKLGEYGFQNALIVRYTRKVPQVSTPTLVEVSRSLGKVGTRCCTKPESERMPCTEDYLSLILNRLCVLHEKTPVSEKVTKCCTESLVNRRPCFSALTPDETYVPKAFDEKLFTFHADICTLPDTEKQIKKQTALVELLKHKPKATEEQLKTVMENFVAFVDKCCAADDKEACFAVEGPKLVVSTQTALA
Procathepsin L, sequence (P07711 whole entry): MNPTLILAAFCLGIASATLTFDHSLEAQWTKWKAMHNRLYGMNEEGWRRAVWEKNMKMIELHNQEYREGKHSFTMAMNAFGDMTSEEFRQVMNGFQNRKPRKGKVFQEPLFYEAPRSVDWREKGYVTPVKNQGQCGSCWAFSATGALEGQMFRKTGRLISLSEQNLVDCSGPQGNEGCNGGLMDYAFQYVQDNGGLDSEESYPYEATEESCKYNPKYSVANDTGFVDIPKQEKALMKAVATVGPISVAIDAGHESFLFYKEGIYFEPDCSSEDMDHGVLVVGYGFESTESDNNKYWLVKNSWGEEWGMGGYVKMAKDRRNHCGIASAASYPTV
Large T antigen, sequence (P03070 whole entry): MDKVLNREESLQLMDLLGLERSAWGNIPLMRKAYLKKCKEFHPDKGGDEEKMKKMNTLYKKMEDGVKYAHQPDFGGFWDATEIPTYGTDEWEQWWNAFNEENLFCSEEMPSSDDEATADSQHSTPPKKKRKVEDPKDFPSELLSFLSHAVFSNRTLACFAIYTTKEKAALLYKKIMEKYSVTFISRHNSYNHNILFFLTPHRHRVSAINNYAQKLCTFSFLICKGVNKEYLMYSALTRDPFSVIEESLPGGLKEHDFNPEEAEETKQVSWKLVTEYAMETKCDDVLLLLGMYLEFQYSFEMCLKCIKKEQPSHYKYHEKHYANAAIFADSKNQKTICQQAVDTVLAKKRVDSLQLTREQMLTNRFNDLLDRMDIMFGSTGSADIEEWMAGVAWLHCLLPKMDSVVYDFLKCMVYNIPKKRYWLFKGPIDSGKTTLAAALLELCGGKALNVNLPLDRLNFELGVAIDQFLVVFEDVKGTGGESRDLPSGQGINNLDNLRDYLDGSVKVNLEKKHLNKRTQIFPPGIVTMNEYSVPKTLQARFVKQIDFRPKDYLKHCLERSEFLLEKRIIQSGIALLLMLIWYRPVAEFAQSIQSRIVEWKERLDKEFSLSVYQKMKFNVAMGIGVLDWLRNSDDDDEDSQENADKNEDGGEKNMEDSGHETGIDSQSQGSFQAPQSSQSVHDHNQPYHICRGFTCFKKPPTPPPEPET
Cytochrome P450 2C19, sequence (P33261 whole entry): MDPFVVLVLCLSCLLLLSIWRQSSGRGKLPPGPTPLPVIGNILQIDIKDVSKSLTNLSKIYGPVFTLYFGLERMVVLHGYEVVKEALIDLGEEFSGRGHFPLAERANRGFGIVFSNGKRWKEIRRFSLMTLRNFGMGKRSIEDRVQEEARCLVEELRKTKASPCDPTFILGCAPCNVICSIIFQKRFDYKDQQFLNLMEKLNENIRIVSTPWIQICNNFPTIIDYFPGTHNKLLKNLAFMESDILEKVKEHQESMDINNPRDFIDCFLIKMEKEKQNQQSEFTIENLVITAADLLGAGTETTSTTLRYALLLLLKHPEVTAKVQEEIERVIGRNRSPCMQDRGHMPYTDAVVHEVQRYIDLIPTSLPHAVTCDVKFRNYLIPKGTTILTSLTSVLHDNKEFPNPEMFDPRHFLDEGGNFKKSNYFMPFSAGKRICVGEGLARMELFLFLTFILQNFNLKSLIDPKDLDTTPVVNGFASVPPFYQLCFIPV
FAD-linked sulfhydryl oxidase ALR, sequence (P55789 whole entry): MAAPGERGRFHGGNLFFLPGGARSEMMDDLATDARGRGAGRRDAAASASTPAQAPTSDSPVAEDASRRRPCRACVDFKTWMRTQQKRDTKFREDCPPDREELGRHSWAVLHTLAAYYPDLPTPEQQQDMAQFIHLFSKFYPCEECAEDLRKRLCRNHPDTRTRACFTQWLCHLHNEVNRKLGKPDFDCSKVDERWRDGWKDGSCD
Transitional endoplasmic reticulum ATPase (Homo sapiens, UniProt P55072), sequence (P55072 whole entry): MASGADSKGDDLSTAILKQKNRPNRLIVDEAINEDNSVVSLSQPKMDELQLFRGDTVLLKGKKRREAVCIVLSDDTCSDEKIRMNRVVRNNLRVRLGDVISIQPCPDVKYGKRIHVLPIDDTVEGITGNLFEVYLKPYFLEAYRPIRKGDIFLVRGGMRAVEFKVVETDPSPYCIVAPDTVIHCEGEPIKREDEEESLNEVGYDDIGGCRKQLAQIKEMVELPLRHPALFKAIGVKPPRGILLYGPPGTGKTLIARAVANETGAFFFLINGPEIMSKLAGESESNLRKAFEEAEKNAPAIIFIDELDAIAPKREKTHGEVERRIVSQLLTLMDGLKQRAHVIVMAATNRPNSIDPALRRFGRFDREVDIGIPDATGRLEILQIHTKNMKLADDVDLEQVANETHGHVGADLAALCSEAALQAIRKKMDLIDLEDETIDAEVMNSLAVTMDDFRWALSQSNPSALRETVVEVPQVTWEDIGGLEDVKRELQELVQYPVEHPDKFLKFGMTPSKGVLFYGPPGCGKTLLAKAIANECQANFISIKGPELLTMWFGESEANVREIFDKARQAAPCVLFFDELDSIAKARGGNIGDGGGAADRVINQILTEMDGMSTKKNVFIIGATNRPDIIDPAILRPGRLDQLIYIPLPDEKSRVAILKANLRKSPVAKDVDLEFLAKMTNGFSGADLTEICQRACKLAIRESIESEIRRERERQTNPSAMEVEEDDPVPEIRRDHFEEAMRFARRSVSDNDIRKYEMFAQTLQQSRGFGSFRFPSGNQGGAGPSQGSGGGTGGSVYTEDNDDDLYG
Protein Wnt-3a, sequence (P27467 whole entry): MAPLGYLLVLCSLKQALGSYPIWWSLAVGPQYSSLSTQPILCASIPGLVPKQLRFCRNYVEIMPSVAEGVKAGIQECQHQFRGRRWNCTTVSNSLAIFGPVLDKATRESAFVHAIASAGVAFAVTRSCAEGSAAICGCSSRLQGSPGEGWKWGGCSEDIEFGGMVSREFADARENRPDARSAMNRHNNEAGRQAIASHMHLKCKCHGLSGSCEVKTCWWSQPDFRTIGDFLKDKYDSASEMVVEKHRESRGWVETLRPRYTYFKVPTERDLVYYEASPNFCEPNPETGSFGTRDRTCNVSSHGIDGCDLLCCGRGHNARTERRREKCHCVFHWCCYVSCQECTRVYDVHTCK
Transitional endoplasmic reticulum ATPase (Homo sapiens, UniProt P55072, C522A), sequence (P55072 2-806 C522A limits assumed): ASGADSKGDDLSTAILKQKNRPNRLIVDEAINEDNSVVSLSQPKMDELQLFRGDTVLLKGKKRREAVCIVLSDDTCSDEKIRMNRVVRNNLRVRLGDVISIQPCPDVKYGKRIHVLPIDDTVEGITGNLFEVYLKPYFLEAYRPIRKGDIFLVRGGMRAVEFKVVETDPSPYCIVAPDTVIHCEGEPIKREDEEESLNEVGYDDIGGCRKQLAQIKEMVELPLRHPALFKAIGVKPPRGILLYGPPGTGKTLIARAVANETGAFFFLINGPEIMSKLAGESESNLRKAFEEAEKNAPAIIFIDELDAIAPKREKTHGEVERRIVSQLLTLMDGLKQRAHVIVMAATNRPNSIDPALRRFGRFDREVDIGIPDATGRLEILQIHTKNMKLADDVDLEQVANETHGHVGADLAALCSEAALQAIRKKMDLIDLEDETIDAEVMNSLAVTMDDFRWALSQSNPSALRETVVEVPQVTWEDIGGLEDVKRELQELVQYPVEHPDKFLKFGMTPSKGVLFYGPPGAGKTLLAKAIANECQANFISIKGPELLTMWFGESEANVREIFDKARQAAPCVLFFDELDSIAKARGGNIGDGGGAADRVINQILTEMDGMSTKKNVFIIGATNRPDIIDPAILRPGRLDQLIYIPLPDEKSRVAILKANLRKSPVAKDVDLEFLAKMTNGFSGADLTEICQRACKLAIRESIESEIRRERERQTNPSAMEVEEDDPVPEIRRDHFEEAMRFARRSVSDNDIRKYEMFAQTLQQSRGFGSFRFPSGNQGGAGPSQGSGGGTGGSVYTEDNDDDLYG

## CC1CCN(c2c(NCc3ccc(C(=O)N4c5ccccc5CC4C)cc3)c(=O)c2=O)CC1 (stereo unspecified)
[1]
  IC50: 17.6 µM (not active)
Insulin-degrading enzyme
  IC50: 2.98 µM (active)
[2]
  IC50: > 80 µM (inactive)
Protein Wnt-3a
  IC50: 16.4 µM (active)

## O=Cc1cn(Cc2ccccc2F)c2ccccc12
[3]
  EC50: 14 µM (active)
[4]
  EC50: 3.85 µM (active)
cells
  EC50: 1.75 µM (active)
[5]
  EC50: < 0.1 µM (active)
[6]
  EC50: 2.11 µM (active)

## Cc1cc(Cl)ccc1N=C(S)Nc1ccccn1
[7]
  EC50: > 49.7 µM (not active)
Wee1-like protein kinase
  EC50: > 49.7 µM (not active)

## Oc1ccc(/C=N/N=C/c2ccc(O)c(O)c2)cc1O
Aspartyl aminopeptidase
  IC50: 1.75 µM (active)
Procathepsin L
  IC50: > 59.6 µM (not active)
Large T antigen
  IC50: 1.15 µM (active)
[8]
  EC50: 27.3 µM (active)
[9]
  AC50: 0.543 µM (active)
[10]
  EC50: 18 µM (active)
[11]
  EC50: 37.4 µM (active)
Albumin
  IC50: > 94.1 µM (inactive)
[12]
  CC50: 39.1 µM (active)

## CCN(CC)[C@@H](C)C(=O)N1c2ccccc2Sc2ccccc21
Cytochrome P450 2C19
  AC50: 31.6 µM (inconclusive)
Cytochrome P450 2D6
  AC50: 20 µM (inconclusive)

## Cn1cc(C(=O)CCl)c2ccccc21
[13]
  IC50: > 50 µM (not active)
[14]
  IC50: > 50 µM (not active)
[15]
  AC50: 8.48 µM (active)

## O=C(Nc1ccc([N+](=O)[O-])cc1)c1cc2ccccc2nc1Cl
[16]
  CC50: > 40 µM (active)

## CCCCCCCCCc1nc2sc3c(c2c(=O)n1NC(=O)c1ccccc1[N+](=O)[O-])CC(C)(C)OC3
[17]
  EC50: 1.73 µM (active)
Streptokinase A
  EC50: 2.23 µM (active)
NS3
  IC50: 11.2 µM (not active)
Streptococcus
  EC50: 63.4 µM (active)
[18]
  AC50: 0.843 µM (active)
